Experimental data from ChEMBL document CHEMBL3085662, “Overman rearrangement and Pomeranz-Fritsch reaction for the synthesis of benzoazepinoisoquinolones to discover novel antitumor agents” (Eur J Med Chem, 2013).

Legend:
A-375 [1] = experiment: Cytotoxicity against human A375 cells after 72 hrs by MTT assay; format: functional, cell-based; settings: A-375, 72 h
HCT-116 [2] = experiment: Cytotoxicity against human HCT116 cells after 72 hrs by MTT assay; format: functional, cell-based; settings: HCT-116, 72 h
NCI-H69 = experiment: Cytotoxicity against human NCI-H69 cells at 10 uM after 72 hrs by MTT assay; format: functional; settings: NCI-H69, 72 h
[3] = Cytotoxicity against human U937 cells at 10 uM after 72 hrs by MTT assay; format: functional; settings: U-937, 72 h
HepG2 = experiment: Cytotoxicity against human HepG2 cells at 10 uM after 72 hrs by MTT assay; format: functional; settings: HepG2, 72 h
NCI-N87 = experiment: Cytotoxicity against human NCI-N87 cells at 10 uM after 72 hrs by MTT assay; format: functional; settings: NCI-N87, 72 h
HT-29 = experiment: Cytotoxicity against human HT-29 cells at 10 uM after 72 hrs by MTT assay; format: functional; settings: HT-29, 72 h
PC-3 = experiment: Cytotoxicity against human PC3 cells at 10 uM after 72 hrs by MTT assay; format: functional; settings: PC-3, 72 h
cells = format: functional; settings: Homo sapiens, 786-0, 72 h
Description: Cytotoxicity against human 786-O cells at 10 uM after 72 hrs by MTT assay

[4] = Cytotoxicity against human LN18 cells at 10 uM after 72 hrs by MTT assay; format: functional; settings: LN-18, 72 h
[5] = Cytotoxicity against human NCI-H1115 cells at 10 uM after 72 hrs by MTT assay; format: functional; settings: NCI-H1115, 72 h
MDA-MB-231 = experiment: Cytotoxicity against human MDA-MB-231 cells at 10 uM after 72 hrs by MTT assay; format: functional; settings: MDA-MB-231, 72 h
HCT-116 [6] = experiment: Cytotoxicity against human HCT116 cells at 10 uM after 72 hrs by MTT assay; format: functional; settings: HCT-116, 72 h
A-375 [7] = experiment: Cytotoxicity against human A375 cells at 10 uM after 72 hrs by MTT assay; format: functional; settings: A-375, 72 h
[8] = Cytotoxicity against human Jurkat E6-1 cells at 10 uM after 72 hrs by MTT assay; format: functional
K562 = experiment: Cytotoxicity against human K562 cells at 10 uM after 72 hrs by MTT assay; format: functional; settings: K562, 72 h

Structure (SMILES)	IC50 (A-375 [1]) [µM]	IC50 (HCT-116 [2]) [µM]	also measured
C=CCn1c(-c2ccc(OC)c(OC)c2)cc2ccc(OC)c(OC)c2c1=O	0.5	> 10	–
COc1ccc2cc(-c3ccc4c(c3)OCO4)n(CC=O)c(=O)c2c1OC	3.77	9.23	–
COc1ccc2cc(-c3ccc4c(c3)OCO4)[nH]c(=O)c2c1OC	7.99	> 10	–
COc1ccc2cc(-c3ccc4c(c3)OCO4)n(CCC=O)c(=O)c2c1OC	2.93	4.69	–
CCCS(=O)(=O)Nc1ccc(F)c(C(=O)c2c[nH]c3ncc(-c4ccc(Cl)cc4)cc23)c1F [VEMURAFENIB]	0.18	> 30	–
C=CCn1c(-c2ccc3c(c2)OCO3)cc2ccc(OC)c(OC)c2c1=O	0.2	0.86	–
COc1ccc2cc(-c3ccc4c(c3)OCO4)n(CC(O)CO)c(=O)c2c1OC (racemic)	> 10	> 10	–
COc1ccc2cc3n(c(=O)c2c1OC)CC=Cc1cc2c(cc1-3)OCO2	0.59	4.87	inhibition at 10 µM (NCI-H69): 56.8%; inhibition at 10 µM [3]: 66.9%; inhibition at 10 µM (HepG2): 54.6%; inhibition at 10 µM (NCI-N87): 46%; inhibition at 10 µM (HT-29): 50.3%; inhibition at 10 µM (PC-3): 58.4%; inhibition at 10 µM (cells): 61.9%; inhibition at 10 µM [4]: 56.4%; inhibition at 10 µM [5]: 77.7%; inhibition at 10 µM (MDA-MB-231): 39.1%; inhibition at 10 µM (HCT-116 [6]): 59.1%; inhibition at 10 µM (A-375 [7]): 86.5%; inhibition at 10 µM [8]: 73%; inhibition at 10 µM (K562): 51%
C=Cc1cc2c(cc1-c1cc3ccc(OC)c(OC)c3c(=O)[nH]1)OCO2	0.43	1.54	–
COc1ccc(-c2cc3ccc(OC)c(OC)c3c(=O)[nH]2)cc1OC	> 10	> 10	–
C=CCOc1nc(-c2ccc3c(c2)OCO3)cc2ccc(OC)c(OC)c12	> 10	> 10	–
C=CCn1c(-c2cc3c(cc2C=C)OCO3)cc2ccc(OC)c(OC)c2c1=O	0.17	0.65	–
CO/C=C/Cn1c(-c2ccc3c(c2)OCO3)cc2ccc(OC)c(OC)c2c1=O	0.11	0.42	–
COc1cc2c(cc1OC)-c1cc3ccc(OC)c(OC)c3c(=O)n1CC=C2	2.1	8.84	–
C=CCOc1nc(-c2ccc(OC)c(OC)c2)cc2ccc(OC)c(OC)c12	> 10	> 10	–
COc1ccc(-c2cc3ccc(OC)c(OC)c3c(=O)n2CCC=O)cc1OC	5.82	> 10	–
COc1ccc2cc3n(c(=O)c2c1OC)CC(O)C(O)c1cc2c(cc1-3)OCO2 (centres undefined)	9	22.2	inhibition at 10 µM (NCI-H69): 19.8%; inhibition at 10 µM [3]: 23.5%; inhibition at 10 µM (HepG2): 20.9%; inhibition at 10 µM (NCI-N87): 18.3%; inhibition at 10 µM (HT-29): 7.56%; inhibition at 10 µM (PC-3): 33.9%; inhibition at 10 µM (cells): 11%; inhibition at 10 µM [4]: 36.5%; inhibition at 10 µM [5]: 25.8%; inhibition at 10 µM (MDA-MB-231): 9.29%; inhibition at 10 µM (HCT-116 [6]): 32.8%; inhibition at 10 µM (A-375 [7]): 51.1%; inhibition at 10 µM [8]: 14.8%; inhibition at 10 µM (K562): 15.6%
CNC(=O)c1cc(Oc2ccc(NC(=O)Nc3ccc(Cl)c(C(F)(F)F)c3)cc2)ccn1 [SORAFENIB]	7.56	5.65	–
